Test results: article PMC9618103, “Exploratory toxicology studies of 2,3-substituted imidazo[1,2-a]pyridines with antiparasitic and anti-inflammatory properties” (Toxicology Research, 2022)

Columns and labels:
Wistar rats [1] = assay: Subacute toxicity: serum alanine aminotransferase and alkaline phosphatase activity; type: in vivo; details: for Alanine Aminotransferase / Alkaline Phosphatase: serum, rats, p.o., 14 days at 10% of LD50 (CCl4, APAP: once daily, 3 days), mean ± SEM, n = 6
Description: (§1) For toxicity tests, acclimatized rats were randomly allocated to 12 groups (n = 12 for the control and n = 6 for the rest groups). […] Meanwhile, the aforementioned vehicles (dose volume 2 mL/kg b.w.) were administered to 3 groups. […] Upon completion of the 14-day treatments and before sample collection, the bladders of animals were emptied by gentle pressure on the lower part of the abdomen to induce urination. The animals were then housed in individual metabolic cages to collect urine for a period of 6 h and then the volume was recorded. Afterward, blood samples were obtained and the serum was separated by centrifugation at 1,620 × g for 10 min at room temperature.
The activities of serum alanine aminotransferase (ALT) and alkaline phosphatase (ALP) were measured with standard kits (RANDOX, Laboratories Ltd, UK).

Wistar rats [2] = assay: Hepatic and renal reactive oxygen species (DCF formation); type: in vivo; details: for Renal ROS: kidney; for Renal ROS / Hepatic ROS: rats, p.o., 14 days at 10% of LD50 (CCl4, APAP: once daily, 3 days), mean ± SEM, n = 6; for Hepatic ROS: liver; for hepatic ROS, change in words / renal ROS, change in words: compared to the control group (CCl4 also versus PO)
Description: as §1
Reactive oxygen species (ROS) were measured by formation of 2′,7′-dichlorofluorescein (DCF). An aliquot of 10 μL (kidney) or 5 μL (liver) of the homogenates was added to 1,940 or 1,945 μL of TRIS:HEPES (18:1) and was incubated in the presence of 50 μL of 2′,7′-dichlorofluorescein diacetate for 1 h at 37 °C. In order to quench the reaction, the mixture was chilled using an ice bath. The fluorescence was measured using a Shimadzu fluorometer (Japan; λex = 488 nm; λem = 525 nm). The results were expressed as nM DCF formed per mg protein/h.[33]
(§2) The protein concentration in homogenates was measured by the Bradford method.[29]

Wistar rats [3] = assay: Hepatic and renal lipid peroxidation (lipid-soluble fluorescence); type: in vivo; details: for Renal Lipoperoxidation: kidney; for Renal Lipoperoxidation / Hepatic Lipoperoxidation: rats, p.o., 14 days at 10% of LD50 (CCl4, APAP: once daily, 3 days), mean ± SEM, n = 6; for Hepatic Lipoperoxidation: liver; for hepatic LPO, change in words / renal LPO, change in words: compared to the control group (CCl4 also versus PO)
Description: as §1
Lipid peroxidation (LPO) was evaluated by the formation of lipid-soluble fluorescence, as previously described. Briefly, kidney and liver tissues were homogenized in 3 and 5 mL of phosphate buffer (0.2 M, pH = 7.4), respectively. A volume of 1 mL (kidney) or 0.8 mL (liver) of the homogenates was added to 7 mL of chloroform-methanol (2:1, v/v), and after 15 s of vortex mixing, the resulting mixture was cooled using an ice bath for 30 min to allow for phase separation. The fluorescence of the organic phase was measured using a Shimadzu fluorometer (Japan; λex = 370 nm; λem = 430 nm), whose sensitivity was adjusted to 140 fluorescence units by using 1 μg/mL of quinine sulfate in 50 mM H2SO4. The results were expressed as relative fluorescence units per milligram of protein.[33]
as §2

Wistar rats [4] = assay: Subacute toxicity: glomerular filtration rate (creatinine clearance) and serum creatinine; type: in vivo; details: for Glomerular Filtration Rate / Serum Creatinine: rats, p.o., 14 days at 10% of LD50 (CCl4, APAP: once daily, 3 days), mean ± SEM, n = 6
Description: (§3) For toxicity tests, acclimatized rats were randomly allocated to 12 groups (n = 12 for the control and n = 6 for the rest groups). […] Meanwhile, the aforementioned vehicles (dose volume 2 mL/kg b.w.) were administered to 3 groups. […] The animals were then housed in individual metabolic cages to collect urine for a period of 6 h and then the volume was recorded. Afterward, blood samples were obtained and the serum was separated by centrifugation at 1,620 × g for 10 min at room temperature.
(§4) Serum and urinary creatinine were determined by the Jaffe method. With this value, evaluation was made of the fractional excretion of sodium (FES), fractional excretion of potassium (FEP), and fractional excretion of glucose.[30]^,[31] The GFR was calculated from clearance of endogenous creatinine using the conventional equation:where GFR (CCr) is the creatinine clearance rate (mL/min); UCr and SCr are the creatinine concentrations (mg/dL) in urine and serum, respectively; and φ is the urinary flow rate (UFR) (mL/min). To avoid the error from the tubular secretion of creatinine found in males, only female animals were used.

NIH mice = assay: Acute oral toxicity, median lethal dose (LD50); type: in vivo
Description: All treatments were administrated orally (p.o.) according to the scheme mentioned below.
Acute toxicity tests were performed in order to measure the median lethal dose (LD50). After acclimatization, mice were randomly allocated to ten groups (n = 4), including the control group (e.g. water, Tween 80, or PO) and the experimental groups, each with a single dose of one of the IMPYs at 4 levels of dose (0.5, 1.0, 2.0, and 4.0 g/kg b.w.).
Animals were food deprived overnight prior to administration of the chemical compounds or vehicles, and food was returned 4 h after dosing. Animals had access to water ad libitum throughout the study.[27]^,[28]

[5] = test system: renal secretory pathway of organic anions; assay: Active tubular secretion of organic acids (PAH uptake in kidney cortex slices); type: in vivo, rats; details: kidney cortex slices, PAH 1 mM, 1 h, 25 °C; rats, p.o., 14 days at 10% of LD50 (CCl4, APAP: once daily, 3 days); mean ± SEM, n = 6
Description: as §1
p-Aminohippuric acid (PAH) was used as an indicator of the renal secretory pathway of organic anions. Kidneys were extracted and immediately submerged in Ringer solution (pH = 7.4 and mOsm = 290 ± 10 mOsm/kg) under constant bubbling with O2/CO2 (95/5%). The kidneys were decapsulated and slices of the kidney cortex were obtained, which were then incubated in Ringer solution containing PAH (1 mM) for 1 h at 25 °C under constant bubbling with O2/CO2 (95/5%). The levels of PAH were quantified with the Bratton-Marshall method and results were expressed as the PAH tissue/medium ratio (PAH t/m ratio).[31]^,[32]

Wistar rats [6] = assay: Subacute toxicity: serum and urine glucose, urinary protein excretion; type: in vivo; details: for Filtered Load of Glucose / Fractional Excretion of Glucose / Serum Glucose / Urinary Glucose Excretion / Urinary Protein Excretion: rats, p.o., 14 days at 10% of LD50 (CCl4, APAP: once daily, 3 days), mean ± SEM, n = 6
Description: as §3
Serum and urine glucose concentration were calculated using GOD-PAP kits (RANDOX, Laboratories Ltd, UK). Urinary protein was quantified using the Bradford method.[29]
as §4
(§5) The levels of sodium and potassium were measured in urine and serum using a flame photometer (Corning 400, Medfield, United States). Calculation was made of the clearance, fractional excretion, and filtered load of sodium (FLS), filtered load of potassium (FLP), and filtered load of glucose (FLG) using the conventional equations:where CX is the clearance rate of X (mL/min), CCr is the creatinine clearance rate (mL/min), UX and SX are the […] concentrations of X, respectively, φ is the UFR (mL/min), FEX is the fractional excretion (%) of X, and FLX is the filtered load of X in μEq/min (Na^+ or K^+) or mg/min (glucose).

Wistar rats [7] = assay: Subacute toxicity: water and electrolyte balance (osmolality, sodium, potassium, urinary flow); type: in vivo; details: for Filtered Load of Potassium / Filtered Load of Sodium / Fractional Excretion of Potassium / Fractional Excretion of Sodium / Serum Osmolality / Serum Potassium / Serum Sodium / U/S Osm ratio / Urinary Flow Rate / Urinary Potassium Excretion / Urinary Sodium Excretion: rats, p.o., 14 days at 10% of LD50 (CCl4, APAP: once daily, 3 days), mean ± SEM, n = 6
Description: as §3
Osmolality of serum and urine were assessed (in triplicate) by using a vapor pressure osmometer (Wescor 5500, Logan, United States). U/S ratio as well as osmolar (COsm) and free water clearances were calculated via conventional equations:where UOsm and SOsm are the osmolality values (mOsm/Kg) in urine and serum, respectively, and φ is the UFR (mL/min).
as §5

[8] = in comparison to the control group
[9] = based on oral LD50, according to GHS [39]
[10] = compared to the control (CCl4 also versus PO)

Row | SMILES | Alanine Aminotransferase (Wistar rats [1]) | Alkaline Phosphatase (Wistar rats [1]) | Renal ROS (Wistar rats [2]) | Hepatic ROS (Wistar rats [2]) | Renal Lipoperoxidation (Wistar rats [3]) | Hepatic Lipoperoxidation (Wistar rats [3]) | Filtered Load of Glucose (Wistar rats [6]) | Fractional Excretion of Glucose (Wistar rats [6]) | Urinary Glucose Excretion (Wistar rats [6]) | Urinary Protein Excretion (Wistar rats [6]) | Filtered Load of Potassium (Wistar rats [7]) | Filtered Load of Sodium (Wistar rats [7]) | Fractional Excretion of Potassium (Wistar rats [7]) | Fractional Excretion of Sodium (Wistar rats [7]) | Serum Osmolality (Wistar rats [7]) | Serum Potassium (Wistar rats [7]) | Serum Sodium (Wistar rats [7]) | Urinary Flow Rate (Wistar rats [7]) | Urinary Potassium Excretion (Wistar rats [7]) | Urinary Sodium Excretion (Wistar rats [7]) | further results
1 | CCOC(=O)c1nc2ccccn2c1[N+](=O)[O-] [Compound 1b, ethyl 3-nitroimidazo[1,2-a]pyridine-2-carboxylate] | 30.10 ± 2.99 U/L | 101.41 ± 16.30 U/L | 227.17 ± 21.01 nM de DCF/mg protein/h | 285.90 ± 37.33 nM de DCF/mg protein/h | 0.38 ± 0.07 URF/mg protein | 0.74 ± 0.07 URF/mg protein | 0.31 ± 0.04 mg/min | 0.05 ± 3.9 E-3% | 141.87 ± 18.46 ng/min | 0.57 ± 0.07 µg/min | 1.70 ± 0.21 µEq/min | 39.31 ± 4.28 µEq/min | 15.58 ± 3.10% | 0.85 ± 0.09% | 294.04 ± 0.88 mOsm/kg | 6.74 ± 0.39 mEq/L | 155.42 ± 3.63 mEq/L | 4.54 ± 0.76 µL/min | 0.24 ± 0.03 µEq/min | 0.34 ± 0.05 µEq/min | serum creatinine, change in words (Wistar rats [4]; compared with 1a and 3b): higher; GFR, change in words (Wistar rats [4]; [8]): lower; serum creatinine level, change in words (Wistar rats [4]; [8]): greater; Glomerular Filtration Rate (Wistar rats [4]): 0.25 ± 0.03 mL/min; Serum Creatinine (Wistar rats [4]): 1.38 ± 0.07 mg/dL; Category (GHS acute oral toxicity hazard category) (NIH mice; [9]): 5; Hazard statement (GHS) (NIH mice; [9]): May be harmful if swallowed; Oral LD50 (NIH mice; female NIH mice, single oral dose, 14 days observation): >4.000 g/kg b.w.; PAH t/m ratio [5]: 2.00 ± 0.13; FEG (fractional excretion of glucose), change in words (Wistar rats [6]; compared to control values): increased; FLG (filtered load of glucose), change in words (Wistar rats [6]; compared to control values): reduced; Serum Glucose (Wistar rats [6]): 121.27 ± 7.88 mg/dL; FLS (filtered load of sodium), change in words (Wistar rats [7]; in comparison with the control group): decreased; U/S Osm ratio (Wistar rats [7]): 2.54 ± 0.20
2 | ClC(Cl)(Cl)Cl [CCl4, carbon tetrachloride, reference compound] | 127.80 ± 4.08 U/L | 328.19 ± 61.36 U/L | 333.27 ± 74.29 nM de DCF/mg protein/h | 1434.82 ± 121.35 nM de DCF/mg protein/h | 0.61 ± 0.07 URF/mg protein | 1.06 ± 0.11 URF/mg protein | 4.64 ± 1.71 mg/min | 0.02 ± 0.01% | 265.11 ± 89.54 ng/min | 12.15 ± 4.49 µg/min | 17.22 ± 5.29 µEq/min | 592.11 ± 199.71 µEq/min | 6.86 ± 2.06% | 0.21 ± 0.06% | 305.77 ± 3.41 mOsm/kg | 4.27 ± 0.25 mEq/L | 139.08 ± 1.63 mEq/L | 6.59 ± 1.39 µL/min | 0.73 ± 0.10 µEq/min | 0.72 ± 0.13 µEq/min | serum ALP, change in words (Wistar rats [1]; [10]): increased; serum ALT, change in words (Wistar rats [1]; [10]): increased; hepatic ROS, change in words (Wistar rats [2]): increased; renal ROS, change in words (Wistar rats [2]): increased; hepatic LPO, change in words (Wistar rats [3]): increased; renal LPO, change in words (Wistar rats [3]): increased; Glomerular Filtration Rate (Wistar rats [4]): 4.30 ± 1.47 mL/min; Serum Creatinine (Wistar rats [4]): 0.45 ± 0.13 mg/dL; PAH t/m ratio [5]: 2.08 ± 0.11; Serum Glucose (Wistar rats [6]): 103.17 ± 4.35 mg/dL; U/S Osm ratio (Wistar rats [7]): 3.27 ± 0.37
3 | CC(=O)Nc1ccc(O)cc1 [APAP, acetaminophen, reference compound] | 41.47 ± 4.80 U/L | 151.97 ± 11.19 U/L | 421.62 ± 56.57 nM de DCF/mg protein/h | 1740.28 ± 231.55 nM de DCF/mg protein/h | 0.46 ± 0.06 URF/mg protein | 1.06 ± 0.06 URF/mg protein | 1.35 ± 0.27 mg/min | 0.01 ± 1.9E-3% | 87.10 ± 19.92 ng/min | 0.94 ± 0.24 µg/min | 3.99 ± 0.80 µEq/min | 147.38 ± 31.27 µEq/min | 12.50 ± 3.12% | 0.27 ± 0.09% | 295.68 ± 1.57 mOsm/kg | 3.78 ± 0.22 mEq/L | 138.58 ± 2.37 mEq/L | 6.19 ± 1.15 µL/min | 0.47 ± 0.14 µEq/min | 0.46 ± 0.21 µEq/min | hepatic ROS, change in words (Wistar rats [2]): increased; renal ROS, change in words (Wistar rats [2]): increased; hepatic LPO, change in words (Wistar rats [3]): increased; renal LPO, change in words (Wistar rats [3]): increased; serum potassium, change in words (Wistar rats [7]; compared to the control group, significant by PLS VIP and ANOVA): decreased
